# In ChEMBL document CHEMBL1145870, “Triethylene tetraamine: a novel telomerase inhibitor” (Bioorg Med Chem Lett, 2003):
# “And” between values parts separate entries of the source, which are not always exact repeats. Equal entries are not always repeated.
# Key:
# HeLa = assay: Inhibitory activity against HeLa cell line using 3-(4,5-dimethylthiazol-2-yl)-2,5-diphenyltetrazolium bromide (MTT, Sigma) assay.
# [1] = Dose required to inhibit HLF cells by 50 percent; settings: Homo sapiens, read-out: LD50
compound,measurement,setting,value
NCCNCCNCCN [TRIENTINE],IC50,HeLa,74.8 µM and 7.8 µM
same,CC50,[1],3100 µM
